In PubChem BioAssay (NCI):
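Following 48 hours of exposure in 96-well plates, responses at five concentrations were used to interpolate endpoints linearly. At the GI50, growth is halved. Definition used: TGI = concentration required for complete inhibition of growth.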

What was measured:
Test in all cases: NCI tumour cell line growth inhibition, 48 h
DU-145 prostate = system: DU-145 prostate
HS 578T breast = system: HS 578T breast
SF-539 CNS = system: SF-539 CNS
U251 CNS = system: U251 CNS
SF-295 CNS = system: SF-295 CNS
IGROV1 ovarian = system: IGROV1 ovarian
UACC-62 melanoma = system: UACC-62 melanoma
HL-60(TB) leukemia = system: HL-60(TB) leukemia
SK-MEL-2 melanoma = system: SK-MEL-2 melanoma
RXF 393 renal = system: RXF 393 renal
SK-MEL-28 melanoma = system: SK-MEL-28 melanoma
KM12 colon = system: KM12 colon
HOP-62 NSCLC = system: HOP-62 NSCLC
NCI-H460 lung = system: NCI-H460 lung
HOP-92 NSCLC = system: HOP-92 NSCLC
NCI-H226 lung = system: NCI-H226 lung
ACHN renal = system: ACHN renal
SR leukemia = system: SR leukemia
K-562 leukemia = system: K-562 leukemia
SN12C renal = system: SN12C renal
UO-31 renal = system: UO-31 renal
OVCAR-8 ovarian = system: OVCAR-8 ovarian
HCT-15 colon = system: HCT-15 colon
SNB-75 CNS = system: SNB-75 CNS
786-0 renal = system: 786-0 renal
LOX IMVI melanoma = system: LOX IMVI melanoma
PC-3 prostate = system: PC-3 prostate
OVCAR-4 ovarian = system: OVCAR-4 ovarian
SK-MEL-5 melanoma = system: SK-MEL-5 melanoma
CCRF-CEM leukemia = system: CCRF-CEM leukemia
MALME-3M melanoma = system: MALME-3M melanoma
OVCAR-5 ovarian = system: OVCAR-5 ovarian
BT-549 breast = system: BT-549 breast
COLO 205 colon = system: COLO 205 colon
MDA-MB-231 breast = system: MDA-MB-231 breast
NCI/ADR-RES ovarian = system: NCI/ADR-RES ovarian
MCF7 breast = system: MCF7 breast
NCI-H522 lung = system: NCI-H522 lung
UACC-257 melanoma = system: UACC-257 melanoma
HCT-116 colon = system: HCT-116 colon
SF-268 CNS = system: SF-268 CNS
SNB-19 CNS = system: SNB-19 CNS
SK-OV-3 ovarian = system: SK-OV-3 ovarian
CAKI-1 renal = system: CAKI-1 renal
TK-10 renal = system: TK-10 renal
EKVX NSCLC = system: EKVX NSCLC
HCC-2998 colon = system: HCC-2998 colon
OVCAR-3 ovarian = system: OVCAR-3 ovarian
T-47D breast = system: T-47D breast
A549 NSCLC = system: A549 NSCLC
HT29 colon = system: HT29 colon
A498 renal = system: A498 renal
SW-620 colon = system: SW-620 colon
M14 melanoma = system: M14 melanoma
RPMI-8226 leukemia = system: RPMI-8226 leukemia
MOLT-4 leukemia = system: MOLT-4 leukemia

Compound: CCOC(=O)Nc1cccc(-n2cnc3cc(-c4ccc(O)cc4)ccc32)c1
- GI50 (DU-145 prostate): 391 nM
- TGI (DU-145 prostate): > 45300 nM
- GI50 (HS 578T breast): 317 nM
- TGI (HS 578T breast): > 30700 nM
- GI50 (SF-539 CNS): 182 nM
- TGI (SF-539 CNS): 15000 nM
- GI50 (U251 CNS): 158 nM
- TGI (U251 CNS): > 47100 nM
- GI50 (SF-295 CNS): 102 nM
- TGI (SF-295 CNS): > 100000 nM
- GI50 (IGROV1 ovarian): 561 nM
- TGI (IGROV1 ovarian): > 46500 nM
- GI50 (UACC-62 melanoma): 367 nM
- TGI (UACC-62 melanoma): > 36900 nM
- GI50 (HL-60(TB) leukemia): 36 nM
- TGI (HL-60(TB) leukemia): 1210 nM
- GI50 (SK-MEL-2 melanoma): 204 nM
- TGI (SK-MEL-2 melanoma): > 43800 nM
- GI50 (RXF 393 renal): 157 nM
- TGI (RXF 393 renal): 681 nM
- GI50 (SK-MEL-28 melanoma): 1620 nM
- TGI (SK-MEL-28 melanoma): > 45900 nM
- GI50 (KM12 colon): 283 nM
- TGI (KM12 colon): 6020 nM
- GI50 (HOP-62 NSCLC): 770 nM
- TGI (HOP-62 NSCLC): > 59800 nM
- GI50 (NCI-H460 lung): 192 nM
- TGI (NCI-H460 lung): > 34200 nM
- GI50 (HOP-92 NSCLC): 1450 nM
- TGI (HOP-92 NSCLC): 13600 nM
- GI50 (NCI-H226 lung): 1260 nM
- TGI (NCI-H226 lung): 6770 nM
- GI50 (ACHN renal): 260 nM
- TGI (ACHN renal): > 67400 nM
- GI50 (SR leukemia): 32 nM
- TGI (SR leukemia): > 45200 nM
- GI50 (K-562 leukemia): 42.6 nM
- TGI (K-562 leukemia): > 100000 nM
- GI50 (SN12C renal): 498 nM
- TGI (SN12C renal): > 55000 nM
- GI50 (UO-31 renal): 388 nM
- TGI (UO-31 renal): > 36900 nM
- GI50 (OVCAR-8 ovarian): 302 nM
- TGI (OVCAR-8 ovarian): > 33700 nM
- GI50 (HCT-15 colon): 44.7 nM
- TGI (HCT-15 colon): > 37800 nM
- GI50 (SNB-75 CNS): 48.6 nM
- TGI (SNB-75 CNS): > 41100 nM
- GI50 (786-0 renal): 719 nM
- TGI (786-0 renal): > 54800 nM
- GI50 (LOX IMVI melanoma): 245 nM
- TGI (LOX IMVI melanoma): > 39900 nM
- GI50 (PC-3 prostate): 145 nM
- TGI (PC-3 prostate): > 100000 nM
- GI50 (OVCAR-4 ovarian): 1580 nM
- TGI (OVCAR-4 ovarian): > 55800 nM
- GI50 (SK-MEL-5 melanoma): 167 nM
- TGI (SK-MEL-5 melanoma): 2370 nM
- GI50 (CCRF-CEM leukemia): 144 nM
- TGI (CCRF-CEM leukemia): > 100000 nM
- GI50 (MALME-3M melanoma): 774 nM
- TGI (MALME-3M melanoma): > 48800 nM
- GI50 (OVCAR-5 ovarian): 600 nM
- TGI (OVCAR-5 ovarian): > 75100 nM
- GI50 (BT-549 breast): 132 nM
- TGI (BT-549 breast): 4400 nM
- GI50 (COLO 205 colon): 232 nM
- TGI (COLO 205 colon): > 34600 nM
- GI50 (MDA-MB-231 breast): 267 nM
- TGI (MDA-MB-231 breast): > 67400 nM
- GI50 (NCI/ADR-RES ovarian): 84.9 nM
- TGI (NCI/ADR-RES ovarian): 25400 nM
- GI50 (MCF7 breast): 141 nM
- TGI (MCF7 breast): > 35700 nM
- GI50 (NCI-H522 lung): 56.1 nM
- TGI (NCI-H522 lung): 333 nM
- GI50 (UACC-257 melanoma): 1270 nM
- TGI (UACC-257 melanoma): > 42500 nM
- GI50 (HCT-116 colon): 141 nM
- TGI (HCT-116 colon): > 46200 nM
- GI50 (SF-268 CNS): 2190 nM
- TGI (SF-268 CNS): > 71600 nM
- GI50 (SNB-19 CNS): 313 nM
- TGI (SNB-19 CNS): > 100000 nM
- GI50 (SK-OV-3 ovarian): 618 nM
- TGI (SK-OV-3 ovarian): > 72000 nM
- GI50 (CAKI-1 renal): 343 nM
- TGI (CAKI-1 renal): > 76800 nM
- GI50 (TK-10 renal): 1470 nM
- TGI (TK-10 renal): > 64800 nM
- GI50 (EKVX NSCLC): 885 nM
- TGI (EKVX NSCLC): > 47800 nM
- GI50 (HCC-2998 colon): 310 nM
- TGI (HCC-2998 colon): > 66700 nM
- GI50 (OVCAR-3 ovarian): 56.2 nM
- TGI (OVCAR-3 ovarian): 2170 nM
- GI50 (T-47D breast): 940 nM
- TGI (T-47D breast): > 29300 nM
- GI50 (A549 NSCLC): 380 nM
- TGI (A549 NSCLC): > 45600 nM
- GI50 (HT29 colon): 143 nM
- TGI (HT29 colon): 1100 nM
- GI50 (A498 renal): 697 nM
- TGI (A498 renal): 4530 nM
- GI50 (SW-620 colon): 64.7 nM
- TGI (SW-620 colon): > 47400 nM
- GI50 (M14 melanoma): 63.4 nM
- TGI (M14 melanoma): > 37800 nM
- GI50 (RPMI-8226 leukemia): 342 nM
- TGI (RPMI-8226 leukemia): 3780 nM
- GI50 (MOLT-4 leukemia): 114 nM
- TGI (MOLT-4 leukemia): 37200 nM

Compound: COc1ccc(-c2nc(C(Cl)Cl)nc3cc(-c4ccccc4)nn23)cc1
- GI50 (SF-539 CNS): 72800 nM
- TGI (SF-539 CNS): > 100000 nM
- GI50 (UACC-62 melanoma): > 100000 nM
- TGI (UACC-62 melanoma): > 100000 nM
- GI50 (HL-60(TB) leukemia): 1600 nM
- TGI (HL-60(TB) leukemia): > 100000 nM
- GI50 (SK-MEL-2 melanoma): > 100000 nM
- TGI (SK-MEL-2 melanoma): > 100000 nM
- GI50 (RXF 393 renal): 1630 nM
- TGI (RXF 393 renal): 3140 nM
- GI50 (HOP-62 NSCLC): 2660 nM
- TGI (HOP-62 NSCLC): > 100000 nM
- GI50 (HOP-92 NSCLC): 3090 nM
- TGI (HOP-92 NSCLC): > 100000 nM
- GI50 (SR leukemia): 1870 nM
- TGI (SR leukemia): > 100000 nM
- GI50 (K-562 leukemia): 3060 nM
- TGI (K-562 leukemia): > 100000 nM
- GI50 (UO-31 renal): > 100000 nM
- TGI (UO-31 renal): > 100000 nM
- GI50 (SNB-75 CNS): > 100000 nM
- TGI (SNB-75 CNS): > 100000 nM
- GI50 (786-0 renal): 10700 nM
- TGI (786-0 renal): 26900 nM
- GI50 (SK-MEL-5 melanoma): > 100000 nM
- TGI (SK-MEL-5 melanoma): > 100000 nM
- GI50 (BT-549 breast): 1920 nM
- TGI (BT-549 breast): 5780 nM
- GI50 (SNB-19 CNS): 2810 nM
- TGI (SNB-19 CNS): > 100000 nM
- GI50 (SW-620 colon): 1960 nM
- TGI (SW-620 colon): > 100000 nM
- GI50 (MOLT-4 leukemia): 2750 nM
- TGI (MOLT-4 leukemia): > 100000 nM
